Experimental data as given in patent EP4603105A1, “PHARMACEUTICAL COMPOSITION CONTAINING CYCLIC COMPOUND HAVING SELECTIVE KRAS INHIBITORY EFFECT AGAINST HRAS AND NRAS” (CHUGAI SEIYAKU KABUSHIKI KAISHA, priority 2022, dated 2024).

Key:
[1] = target: HRAS wild-type protein (Homo sapiens, UniProt P01112); experiment: Binding to HRAS by surface plasmon resonance (SPR), KD and KD ratio to KRAS; details: ratio of KD for HRAS wild-type protein to KD for KRAS
Method in brief: (§1)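 GDP-loaded biotinylated Avi-tag RAS proteins (E. coli-expressed) captured on a Biotin CAPture chip at ~100–300 RU; single-cycle kinetics at 30°C, 100 µL/min, 75 s injections of rising compound concentrations. HBS pH 7.4 running buffer with 1 mM DTT, 10 mM MgCl2, 10 µM GDP, 4% DMSO. KD from 1:1 binding fit.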

[2] = test system: human lung cancer strain NCI-H441; format: cell-based
Method in brief: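 Readout: […] after the ATP-based reagent. Compound: serial dilutions in dimethyl sulfoxide.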

[3] = target: GDP-bound NRAS wild-type protein (Homo sapiens, UniProt P01111); experiment: Binding to NRAS by surface plasmon resonance (SPR), KD and KD ratio to KRAS; details: ratio of KD for GDP-bound NRAS wild-type protein to KD for KRAS
Sequence of GDP-bound NRAS wild-type protein (P01111 whole entry): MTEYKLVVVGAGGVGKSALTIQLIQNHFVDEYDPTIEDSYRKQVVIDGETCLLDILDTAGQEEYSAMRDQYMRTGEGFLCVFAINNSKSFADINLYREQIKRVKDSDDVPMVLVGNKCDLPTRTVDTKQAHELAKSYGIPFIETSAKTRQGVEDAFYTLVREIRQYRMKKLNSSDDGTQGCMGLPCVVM
Method in brief: as §1

Sequence of HRAS wild-type protein (P01112 whole entry): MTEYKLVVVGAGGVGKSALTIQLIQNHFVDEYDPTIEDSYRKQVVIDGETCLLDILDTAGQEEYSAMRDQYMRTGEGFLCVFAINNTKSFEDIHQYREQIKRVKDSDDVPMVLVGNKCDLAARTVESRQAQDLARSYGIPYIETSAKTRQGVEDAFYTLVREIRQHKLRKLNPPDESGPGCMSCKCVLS

SMILES	HRAS /KRAS [1]	IC50 [2]	NRAS /KRAS [3]
CC[C@H](C)[C@@H]1NC(=O)[C@H](COC)N(C)C(=O)C[C@@H](C(=O)N2CCOCC2)N(C)C(=O)[C@H](C2CCCC2)N(C)C(=O)C2(CCC2)NC(=O)[C@@H]2CC(F)(F)CN2C(=O)[C@H](CCc2cc(F)c(C(F)(F)F)c(F)c2)NC(=O)CN(C)C(=O)[C@H](Cc2ccc(C(F)(F)F)cc2)N2CCCCC[C@@H](C2=O)N(C)C(=O)CNC1=O [PP0861]	B (a compound having 3 or more and less than 10 is denoted as B)	20.7 nM	B (a compound having 3 or more and less than 10 is denoted as B)
CCO[C@@H]1C[C@H]2C(=O)NC3(CCC3)C(=O)N(C)[C@@H](C3CCCC3)C(=O)N(C)[C@H](C(=O)N3CCOCC3)CC(=O)N(C)[C@@H](COC)C(=O)N[C@@H]([C@@H](C)CC)C(=O)N3CC[C@H]3C(=O)N(C)[C@H]3CCCCCN(C3=O)[C@@H](Cc3ccc(C(F)(F)F)cc3)C(=O)N(C)CC(=O)N[C@@H](CCc3cc(F)c(C(F)(F)F)c(F)c3)C(=O)N2C1 [PP0863]	B (a compound having 3 or more and less than 10 is denoted as B)	228 nM	B (a compound having 3 or more and less than 10 is denoted as B)
CCO[C@@H]1C[C@H]2C(=O)NC3(CCC3)C(=O)N(C)[C@@H](C3CCCC3)C(=O)N(C)[C@H](C(=O)N(C)C)CC(=O)N(C)[C@@H](COC)C(=O)N[C@@H]([C@@H](C)CC)C(=O)N3CC[C@H]3C(=O)N(C)[C@H]3CCCCCN(C3=O)[C@@H](Cc3ccc(C(F)(F)F)cc3)C(=O)N(C)CC(=O)N[C@@H](CCc3cc(F)c(C(F)(F)F)c(F)c3)C(=O)N2C1 [PP0864]	B (a compound having 3 or more and less than 10 is denoted as B)	185 nM	B (a compound having 3 or more and less than 10 is denoted as B)
CC[C@H](C)[C@@H]1NC(=O)[C@H](COC)N(C)C(=O)C[C@@H](C(=O)N2CCOCC2)N(C)C(=O)[C@H](C2CCCC2)N(C)C(=O)C2(CCC2)NC(=O)[C@@H]2CCCN2C(=O)[C@H](CCc2cc(F)c(C(F)(F)F)c(F)c2)NC(=O)CN(C)C(=O)[C@H](Cc2ccc(C(F)(F)F)cc2)N2CCCCC[C@@H](C2=O)N(C)C(=O)[C@@H]2CCN2C1=O [PP0865]	B (a compound having 3 or more and less than 10 is denoted as B)	767 nM	B (a compound having 3 or more and less than 10 is denoted as B)
CC[C@H](C)[C@@H]1NC(=O)[C@H](COC)N(C)C(=O)C[C@@H](C(=O)N2CCOCC2)N(C)C(=O)[C@H](C2CCCC2)N(C)C(=O)C2(CCC2)NC(=O)[C@@H]2CC(F)(F)CN2C(=O)[C@H](CCc2cc(F)c(C(F)(F)F)c(F)c2)NC(=O)CN(C)C(=O)[C@H](Cc2ccc(C(F)(F)F)cc2)N2CCCCC[C@@H](C2=O)N(C)C(=O)[C@@H]2CCN2C1=O [PP0866]	B (a compound having 3 or more and less than 10 is denoted as B)	197 nM	B (a compound having 3 or more and less than 10 is denoted as B)
CC[C@H](C)[C@@H]1NC(=O)[C@H](CC(C)C)N(C)C(=O)C[C@@H](C(=O)N2CCOCC2)N(C)C(=O)[C@H](C2CCCC2)N(C)C(=O)C2(CCC2)NC(=O)[C@@H]2C[C@@H](O)CN2C(=O)[C@H](CCc2cc(F)c(C(F)(F)F)c(F)c2)NC(=O)CN(C)C(=O)[C@H](Cc2ccc(C(F)(F)F)cc2)N2CCCC[C@@H](C2=O)N(C)C(=O)CN(C)C1=O [PP0868]	B (a compound having 3 or more and less than 10 is denoted as B)	70.8 nM	C (A compound having a KD ratio of 0.1 or more and less than 3 is denoted as C)
CC[C@H](C)[C@@H]1NC(=O)[C@H](CC(C)C)N(C)C(=O)C[C@@H](C(=O)N2CCOCC2)N(C)C(=O)[C@H](C2CCCC2)N(C)C(=O)C2(CCC2)NC(=O)[C@@H]2[C@@H](O)CCN2C(=O)[C@H](CCc2cc(F)c(C(F)(F)F)c(F)c2)NC(=O)CN(C)C(=O)[C@H](Cc2ccc(C(F)(F)F)cc2)N2CCCC[C@@H](C2=O)N(C)C(=O)CN(C)C1=O [PP0869]	B (a compound having 3 or more and less than 10 is denoted as B)	134 nM	B (a compound having 3 or more and less than 10 is denoted as B)
CC[C@H](C)[C@@H]1NC(=O)[C@H](CC(C)C)N(C)C(=O)C[C@@H](C(=O)N2CCOCC2)N(C)C(=O)[C@H](C2CCCC2)N(C)C(=O)C2(CCC2)NC(=O)[C@@H]2[C@H](O)CCN2C(=O)[C@H](CCc2cc(F)c(C(F)(F)F)c(F)c2)NC(=O)CN(C)C(=O)[C@H](Cc2ccc(C(F)(F)F)cc2)N2CCCC[C@@H](C2=O)N(C)C(=O)CN(C)C1=O [PP0870]	B (a compound having 3 or more and less than 10 is denoted as B)	79.7 nM	B (a compound having 3 or more and less than 10 is denoted as B)
C=CC[C@H]1C(=O)N[C@@H]([C@@H](C)CC)C(=O)N(C)CC(=O)N(C)[C@H]2CCCCN(C2=O)[C@@H](Cc2ccc(C(F)(F)F)cc2)C(=O)N(C)CC(=O)N[C@@H](CCc2cc(F)c(C(F)(F)F)c(F)c2)C(=O)N2C[C@H](OCC)C[C@H]2C(=O)N[C@](C)(CC=C)C(=O)N(C)[C@@H](C2CCCC2)C(=O)N(C)[C@H](C(=O)N2CCOCC2)CC(=O)N1C [PP0874]	B (a compound having 3 or more and less than 10 is denoted as B)	4.9 nM	C (A compound having a KD ratio of 0.1 or more and less than 3 is denoted as C)
C=CCC[C@H]1C(=O)N[C@@H]([C@@H](C)CC)C(=O)N(C)CC(=O)N(C)[C@H]2CCCCN(C2=O)[C@@H](Cc2ccc(C(F)(F)F)cc2)C(=O)N(C)CC(=O)N[C@@H](CCc2cc(F)c(C(F)(F)F)c(F)c2)C(=O)N2C[C@H](OCC)C[C@H]2C(=O)N[C@](C)(CC=C)C(=O)N(C)[C@@H](C2CCCC2)C(=O)N(C)[C@H](C(=O)N2CCOCC2)CC(=O)N1C [PP0875]	B (a compound having 3 or more and less than 10 is denoted as B)	4.8 nM	C (A compound having a KD ratio of 0.1 or more and less than 3 is denoted as C)
C=CCCC[C@H]1C(=O)N[C@@H]([C@@H](C)CC)C(=O)N(C)CC(=O)N(C)[C@H]2CCCCN(C2=O)[C@@H](Cc2ccc(C(F)(F)F)cc2)C(=O)N(C)CC(=O)N[C@@H](CCc2cc(F)c(C(F)(F)F)c(F)c2)C(=O)N2C[C@H](OCC)C[C@H]2C(=O)N[C@](C)(CC=C)C(=O)N(C)[C@@H](C2CCCC2)C(=O)N(C)[C@H](C(=O)N2CCOCC2)CC(=O)N1C [PP0876]	C (A compound having a KD ratio of 0.1 or more and less than 3 is denoted as C)	7.1 nM	C (A compound having a KD ratio of 0.1 or more and less than 3 is denoted as C)
C=CCCCC[C@H]1C(=O)N[C@@H]([C@@H](C)CC)C(=O)N(C)CC(=O)N(C)[C@H]2CCCCN(C2=O)[C@@H](Cc2ccc(C(F)(F)F)cc2)C(=O)N(C)CC(=O)N[C@@H](CCc2cc(F)c(C(F)(F)F)c(F)c2)C(=O)N2C[C@H](OCC)C[C@H]2C(=O)N[C@](C)(CC=C)C(=O)N(C)[C@@H](C2CCCC2)C(=O)N(C)[C@H](C(=O)N2CCOCC2)CC(=O)N1C [PP0877]	B (a compound having 3 or more and less than 10 is denoted as B)	18.8 nM	C (A compound having a KD ratio of 0.1 or more and less than 3 is denoted as C)
C=CC[C@H]1C(=O)N[C@@H]([C@@H](C)CC)C(=O)N(C)CC(=O)N(C)[C@H]2CCCCCN(C2=O)[C@@H](Cc2ccc(C(F)(F)F)cc2)C(=O)N(C)CC(=O)N[C@@H](CCc2cc(F)c(C(F)(F)F)c(F)c2)C(=O)N2C[C@H](OCC)C[C@H]2C(=O)N[C@](C)(CC=C)C(=O)N(C)[C@@H](C2CCCC2)C(=O)N(C)[C@H](C(=O)N2CCOCC2)CC(=O)N1C [PP0878]	B (a compound having 3 or more and less than 10 is denoted as B)	85.9 nM	B (a compound having 3 or more and less than 10 is denoted as B)
CCO[C@@H]1C[C@H]2C(=O)NC3(CCC3)C(=O)N(C)[C@@H](C3CCCC3)C(=O)N(C)[C@H](C(=O)N(C)C)CC(=O)N(C)[C@@H](CC)C(=O)N[C@@H]([C@@H](C)CC)C(=O)N(C)CC(=O)N(C)[C@H]3CCCCN(C3=O)[C@@H](Cc3ccc(C(F)(F)F)cc3)C(=O)N(C)CC(=O)N[C@@H](CCc3ccc(C(F)(F)F)c(C)c3)C(=O)N2C1 [PP0882]	B (a compound having 3 or more and less than 10 is denoted as B)	7.1 nM	C (A compound having a KD ratio of 0.1 or more and less than 3 is denoted as C)
CCO[C@@H]1C[C@H]2C(=O)NC3(CCC3)C(=O)N(C)[C@@H](C3CCCC3)C(=O)N(C)[C@H](C(=O)N(C)C)CC(=O)N(C)[C@@H](CC)C(=O)N[C@@H]([C@@H](C)CC)C(=O)N(C)CC(=O)N(C)[C@H]3CCCCN(C3=O)[C@@H](Cc3ccc(C(F)(F)F)cc3)C(=O)N(C)CC(=O)N[C@@H](CCc3ccc(C(F)(F)F)c(OC)c3)C(=O)N2C1 [PP0884]	C (A compound having a KD ratio of 0.1 or more and less than 3 is denoted as C)	6.2 nM	C (A compound having a KD ratio of 0.1 or more and less than 3 is denoted as C)
